Data reported in article PMC5526551, “New hydrazonoindolin-2-ones: Synthesis, exploration of the possible anti-proliferative mechanism of action and encapsulation into PLGA microspheres” (PLoS ONE, 2017).
Read-outs that look alike come from different tables or passages of the source.

What was measured:
[1] = tested on: phosphorylated Rb protein in A549 cells; experiment: Rb phosphorylation (immunofluorescent imaging); assay type: cell-based; conditions: Homo sapiens, read-out: IC50 for reduction in Rb phosphorylation
Experimental: Compound 7e was analyzed for effects on various aspects of cell cycle progression in human cancer cells. These studies were carried out using cells derived from lung adenocarcinoma (A549). This follow-up assessment of activity tested compounds used immunofluorescent imaging of phosphorylated Rb protein and the total DNA content of each cell to determine the cell cycle phase. The ability of the test compounds to affect the cell cycle and Rb phosphorylation was tested over a range of concentrations from less than 100 nM to 50 μM.
Fig 5 Dose-dependent changes in cell cycle. Distribution of cells within the cell cycle as well as total cell numbers were quantitated by fluorescent staining of nuclear DNA with DAPI. Phosphorylated Rb protein was detected by indirect immunofluorescence followed by automated image acquisition and analysis. […] All IC50 values are given under one unlabelled substance, with the y-axis title of each plot written in front as the measure.
A549 cells were harvested from a 90% confluent 10 cm dish and diluted in growth medium. An appropriate concentration of cells were prepared to add 5,000 cells in a volume of 100 µL per well in tissue culture treated PerkinElmer optical bottom ViewPlate microplates, then incubated overnight at 37°C. The following day, compound 7e and the positive control, sunitinib, were diluted in DMSO to concentrations 1000-fold above the maximum tested concentration.
Concentrated dosing solutions of twice the final concentration were prepared by dilution of the DMSO stocks 1:500 in growth media. Three-fold dilutions of each dosing medium were then prepared in medium containing 0.2% DMSO to maintain a constant concentration of vehicle throughout the concentration range of each compound. Each of these was added in equal volume (100 µL) to each well on the assay plate, along with the vehicle control. One plate of cells was incubated with the compounds for a further 24 h, and a separate plate was incubated with the compounds for 48 h.
At the end of the respective treatment periods, 150 µL per well of neutral buffered formalin fixative (10% paraformaldehyde) was rapidly added to each plate and incubated at room temperature for 20 min. […] Phosphorylated Rb protein (p-Rb) was detected by 1 h incubation with anti-p-Rb rabbit monoclonal antibody (Cell Signaling #8516) diluted 1:1600 in antibody dilution buffer (1% bovine serum albumin and 0.3% Triton X-100 in PBS). […] Anti-Phospho Ser807/811-Rb antibody (Cell Signalling cat #8516) was detected by 1 h incubation with goat anti-rabbit AlexaFluor 488 conjugate (InVitrogen cat #A-11008) diluted 1:500 in antibody dilution buffer. […] Fluorescent micrographs were analyzed using Molecular Devices MetaXpress multi-wavelength scoring image analysis program to quantitate Rb phosphorylation. […]

A549 = experiment: Growth inhibition in NSCLC comparison line (selectivity and multidrug resistance studies); assay type: cell-based, human; conditions: maximum 25 μM, read-out: IC50 NSCLC A-549 (sensitive)
Experimental: This assessment of the growth inhibitory activity of the compounds was tested in quadruplicate at a maximum concentration of 25 μM, followed by 10 serially diluted concentrations.
Compound 7e was analyzed for cancer cell growth inhibitory activity in a sensitive NSCLC cell line (A549) and a multidrug resistant lung cancer cell line (NCI-H69AR) which expresses the ABCC1 efflux pump protein. This assessment of activity tested compounds in quadruplicate at a maximum concentration of 25 μM, followed by 10 serially diluted concentrations.
A549, IEC-6, MCF-10A and 3t3 cells were harvested from 90-95% confluent cultures in 10 cm dishes, and diluted in growth media recommended by the suppliers as follows: A549 cells were cultured in RPMI-1640 medium supplemented with 5% fetal bovine serum (FBS). IEC-6 cells were obtained from ATCC and cultured in Dulbecco’s modified Eagle’s medium (DMEM) supplemented with 10% FBS and 0.1 unit/mL recombinant insulin. Swiss 3t3 cells were obtained from ATCC and cultured in DMEM supplemented with 10% FBS. MCF-10Acells were obtained from ATCC and cultured in a mixture DMEM and F12 media supplemented with 5% fetal bovine serum (FBS), 20 ng/mL recombinant epidermal growth factor, 10 µg/mL insulin, 0.5 µg/mL hydrocortisone and 100 ng/mL cholera toxin. An appropriate concentration of cells was prepared to add 1,250 cells in a volume of 25 µL per well in tissue culture treated BD 384-well microplates, then incubated overnight at 37 °C.
Compound 7e and the positive control, sunitinib, were diluted to a concentration of […] in DMSO. Concentrated dosing solutions (double the final concentration) were prepared by dilution of the DMSO stocks 1:500 in growth medium. Two-fold serial dilutions were then prepared in medium containing 0.2% DMSO to maintain a constant concentration of vehicle throughout the concentration range of the compound. Each of these was added in equal volume (25 µL) to four wells on each cell assay plate, along with vehicle control. The highest concentration for serial dilutions of the positive control sunitinib was prepared exactly as the experimental compounds. […]
At the end of the treatment period, assay plates were allowed to cool to RT for 10 min prior to addition of 25 µL per well Promega CellTiterGlo reagent, followed by an additional 10 min incubation at RT. The resulting luminescence was quantitated using a Molecular Devices Spectramax Paradigm.Percent growth inhibition was calculated using equation (1). The potency of compounds was determined using the non-linear dose response algorithm (four-parameter logistic fit) with GraphPad Prism 5 software. […]
Compound 7e was diluted to a concentration of 25 µM in DMSO. […] The resulting luminescence was quantitated using a Molecular Devices Spectramax Paradigm. […]

SMILES	IC50 ([1]; A549, 24 h)	IC50 ([1]; A549, 48 h)	IC50 (A549; 72 h)	IC50 (A549; Homo sapiens, A549, 72 h)
O=C1Nc2ccc(Br)cc2C1=NN=C1C(=O)N(Cc2ccccc2)c2ccccc21 [Compound 7e, 1-Benzyl-3-((5-bromo-2-oxoindolin-3-ylidene)hydrazono)indolin-2-one]	2.55 µM	2.47 µM	1.6 µM	1.56 µM
CCN(CC)CCNC(=O)c1c(C)[nH]c(/C=C2\C(=O)Nc3ccc(F)cc32)c1C [Sunitinib, sunitinib, reference compound]	3.16 µM	14 µM	3.1 µM	3.06 µM
